Where “and” joins values, the source holds several entries; their conditions need not be identical. Equal entries are not always repeated. Toxic doses and inconclusive results are not listed. Rule for the calls: active = survival T/C of 150% or more; inactive = T/C below 125% in these data.
Tested on: CD2F1 mice, L1210 leukemia ip, survival T/C
Test: NCI In Vivo Anticancer Drug Screen. Data for tumor model L1210 Leukemia (intraperitoneal) in CD2F1 (CDF1) mice
Conditions: higher = longer survival
Summary of the method: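 Ratio T/C, where T is the treated-group value and C the vehicle-dosed control value, from mice implanted with a transplantable tumor.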

[1] = endpoint: mean survival time, dose: 100.0 mg/kg/injection, schedule: Q04DX003 (ip), vehicle: other
[2] = endpoint: mean survival time, dose: 200.0 mg/kg/injection, schedule: Q04DX003 (ip), vehicle: other
[3] = endpoint: mean survival time, dose: 100.0 mg/kg/injection, schedule: Q01DX009 (ip), vehicle: saline with Tween-80
[4] = endpoint: mean survival time, dose: 200.0 mg/kg/injection, schedule: Q01DX009 (ip), vehicle: saline with Tween-80
[5] = endpoint: mean survival time, dose: 400.0 mg/kg/injection, schedule: Q01DX009 (ip), vehicle: saline with Tween-80
[6] = endpoint: mean survival time, dose: 100.0 mg/kg/injection, schedule: Q04DX003 (ip), vehicle: Klucel (hydroxypropylcellulose) (HPC)
[7] = endpoint: mean survival time, dose: 200.0 mg/kg/injection, schedule: Q04DX003 (ip), vehicle: Klucel (hydroxypropylcellulose) (HPC)
[8] = endpoint: mean survival time, dose: 400.0 mg/kg/injection, schedule: Q04DX003 (ip), vehicle: Klucel (hydroxypropylcellulose) (HPC)
[9] = endpoint: mean survival time, dose: 100.0 mg/kg/injection, schedule: Q04DX003 (ip), vehicle: saline with Tween-80
[10] = endpoint: mean survival time, dose: 200.0 mg/kg/injection, schedule: Q04DX003 (ip), vehicle: saline with Tween-80
[11] = endpoint: mean survival time, dose: 400.0 mg/kg/injection, schedule: Q04DX003 (ip), vehicle: saline with Tween-80
[12] = endpoint: mean survival time, dose: 37.5 mg/kg/injection, schedule: Q01DX009 (ip), vehicle: saline
[13] = endpoint: mean survival time, dose: 75.0 mg/kg/injection, schedule: Q01DX009 (ip), vehicle: saline
[14] = endpoint: mean survival time, dose: 75.0 mg/kg/injection, schedule: Q04DX003 (ip), vehicle: saline
[15] = endpoint: mean survival time, dose: 150.0 mg/kg/injection, schedule: Q01DX009 (ip), vehicle: saline
[16] = endpoint: mean survival time, dose: 150.0 mg/kg/injection, schedule: Q04DX003 (ip), vehicle: saline
[17] = endpoint: mean survival time, dose: 300.0 mg/kg/injection, schedule: Q04DX003 (ip), vehicle: saline
[18] = endpoint: mean survival time, dose: 50.0 mg/kg/injection, schedule: Q01DX009 (ip), vehicle: saline with Tween-80

Measured: T/C

O=[As](O)(O)Cc1ccccc1
inactive: endpoint: mean survival time, dose: 6.25 mg/kg/injection, schedule: Q01DX009 (ip), vehicle: Klucel (hydroxypropylcellulose) (HPC) 100 % of control | endpoint: mean survival time, dose: 12.5 mg/kg/injection, schedule: Q01DX009 (ip), vehicle: Klucel (hydroxypropylcellulose) (HPC) 89 % of control | endpoint: mean survival time, dose: 25.0 mg/kg/injection, schedule: Q01DX009 (ip), vehicle: Klucel (hydroxypropylcellulose) (HPC) 93 % of control

COc1ccc2ccccc2c1
inactive: endpoint: mean survival time, dose: 100.0 mg/kg/injection, schedule: Q01DX001 (ip), vehicle: saline with Tween-80 101 % of control | [1] 100 % of control | endpoint: mean survival time, dose: 200.0 mg/kg/injection, schedule: Q01DX001 (ip), vehicle: saline with Tween-80 100 % of control | [2] 104 % of control | endpoint: mean survival time, dose: 400.0 mg/kg/injection, schedule: Q01DX001 (ip), vehicle: saline with Tween-80 111 % of control

C[Si](C)C(Cl)Cl
inactive: endpoint: mean survival time, dose: 75.0 mg/kg/injection, schedule: Q01DX009 (ip), vehicle: saline with Tween-80 96 % of control | endpoint: mean survival time, dose: 150.0 mg/kg/injection, schedule: Q01DX009 (ip), vehicle: saline with Tween-80 98 % of control | endpoint: mean survival time, dose: 300.0 mg/kg/injection, schedule: Q01DX009 (ip), vehicle: saline with Tween-80 102 % of control

O/N=C(/Cl)c1ccccn1
inactive: endpoint: mean survival time, dose: 1.88 mg/kg/injection, schedule: Q04DX003 (ip), vehicle: saline 102 % of control | endpoint: mean survival time, dose: 3.75 mg/kg/injection, schedule: Q04DX003 (ip), vehicle: saline 94 % of control | endpoint: mean survival time, dose: 7.5 mg/kg/injection, schedule: Q01DX001 (ip), vehicle: saline 101 % of control | endpoint: mean survival time, dose: 7.5 mg/kg/injection, schedule: Q04DX003 (ip), vehicle: saline 94 % of control

CNC(=O)OC[C@H]1C2=C(C(=O)C(C)=C(N)C2=O)N2C[C@H]3N[C@H]3[C@@]12OC
inactive: endpoint: mean survival time, dose: 13.75 mg/kg/injection, schedule: Q01DX001 (ip), vehicle: carboxymethylcellulose (CMC) 113 % of control

N#C/C(=C\c1c[nH]c2ccccc12)C(N)=O
inactive: endpoint: mean survival time, dose: 100.0 mg/kg/injection, schedule: Q01DX009 (ip), vehicle: other 93 % of control | [3] 97 % of control | [4] 92 % of control | endpoint: mean survival time, dose: 400.0 mg/kg/injection, schedule: Q01DX009 (ip), vehicle: other 88 % of control | [5] 97 % of control

N#CC1c2ccccc2C=CN1C(=O)OCc1ccccc1 (stereo not given)
inactive: [6] 91 % of control | [7] 110 % of control | [8] 106 % of control

BrC1C(Br)C2C3C=CC(c4ccccc43)C12 (stereo not given)
inactive: [3] 91 % of control | [9] 98 % of control | [4] 94 % of control | [10] 98 % of control | [5] 89 % of control | [11] 96 % of control

CCCCCCCCCCCC(=O)c1ccccc1
inactive: [3] 102 % of control | [1] 95 % of control | [4] 102 % of control | [2] 97 % of control | [5] 98 % of control | endpoint: mean survival time, dose: 400.0 mg/kg/injection, schedule: Q04DX003 (ip), vehicle: other 92 % of control

C#CCOc1c(C(=O)OCC)cnc2c1c(C)nn2CC
inactive: [6] 101 % of control | [7] 97 % of control | [8] 101 % of control

C=C(C)CSC(=S)NNc1ccccc1
inactive: endpoint: mean survival time, dose: 25.0 mg/kg/injection, schedule: Q01DX009 (ip), vehicle: acetone 93 % of control | endpoint: mean survival time, dose: 50.0 mg/kg/injection, schedule: Q01DX009 (ip), vehicle: acetone 96 % of control | endpoint: mean survival time, dose: 100.0 mg/kg/injection, schedule: Q01DX009 (ip), vehicle: acetone 102 % of control

O=C(O)c1ccc(Cl)c2ncccc12
inactive: [12] 100 % of control | [13] 95 % of control | [14] 100 % of control | [15] 105 % of control | [16] 97 % of control | [17] 95 % of control

NCCSSCC(N)C(=O)O (stereo not given)
inactive: [9] 106 % of control | [10] 103 % of control | [11] 94 % of control

Cc1nc(N)sc1S(=O)(=O)F
inactive: endpoint: mean survival time, dose: 25.0 mg/kg/injection, schedule: Q01DX009 (ip), vehicle: saline with Tween-80 97 % of control | [18] 111 % of control | [3] 94 % of control and 108 % of control | [4] 101 % of control

O=[N+]([O-])c1ccc(Cl)c2c([N+](=O)[O-])cccc12
inactive: [18] 100 % of control | [3] 93 % of control | [4] 96 % of control

CCOC(=O)c1c(C)csc1NC(C)=O
inactive: [3] 108 % of control | [9] 96 % of control | [4] 97 % of control | [10] 98 % of control | [5] 90 % of control | [11] 93 % of control

O=C(CCl)Nc1cccc(Cl)c1
inactive: [3] 92 % of control | [9] 97 % of control | [4] 95 % of control | [10] 111 % of control | [11] 104 % of control

Cc1cc(=O)[nH]c2[nH]c(=O)ccc12
inactive: endpoint: mean survival time, dose: 100.0 mg/kg/injection, schedule: Q01DX001 (ip), vehicle: saline 100 % of control | endpoint: mean survival time, dose: 200.0 mg/kg/injection, schedule: Q01DX001 (ip), vehicle: saline 96 % of control | endpoint: mean survival time, dose: 400.0 mg/kg/injection, schedule: Q01DX001 (ip), vehicle: saline 96 % of control

N#CCSc1ncnc2nc[nH]c12
inactive: endpoint: mean survival time, dose: 15.0 mg/kg/injection, schedule: Q01DX009 (ip), vehicle: saline 95 % of control and 107 % of control | endpoint: mean survival time, dose: 30.0 mg/kg/injection, schedule: Q01DX009 (ip), vehicle: saline 110 % of control and 112 % of control | endpoint: mean survival time, dose: 60.0 mg/kg/injection, schedule: Q01DX009 (ip), vehicle: saline 110 % of control | endpoint: median survival time, dose: 30.0 mg/kg/injection, schedule: Q01DX009 (ip), vehicle: saline 100 % of control | endpoint: median survival time, dose: 60.0 mg/kg/injection, schedule: Q01DX009 (ip), vehicle: saline 122 % of control

c1cc2nc(c1)CSCCCCCCCCSC2
inactive: [3] 88 % of control | [4] 91 % of control | [5] 95 % of control

O=C(O)C(Br)(Br)Br.[Ag]
inactive: [9] 92 % of control | [10] 89 % of control | [11] 97 % of control

CCOC(CCCO)OCC
inactive: endpoint: mean survival time, dose: 100.0 mg/kg/injection, schedule: Q04DX002 (ip), vehicle: saline with Tween-80 103 % of control | endpoint: mean survival time, dose: 200.0 mg/kg/injection, schedule: Q04DX002 (ip), vehicle: saline with Tween-80 100 % of control | endpoint: mean survival time, dose: 400.0 mg/kg/injection, schedule: Q04DX002 (ip), vehicle: saline with Tween-80 103 % of control

Cc1cc(F)ccc1[NH-].Cc1cc(F)ccc1[NH-].[Cl][Pt+2][Cl]
inactive: endpoint: mean survival time, dose: 12.5 mg/kg/injection, schedule: Q04DX003 (ip), vehicle: saline with Tween-80 106 % of control | endpoint: mean survival time, dose: 25.0 mg/kg/injection, schedule: Q04DX003 (ip), vehicle: saline with Tween-80 101 % of control | endpoint: mean survival time, dose: 50.0 mg/kg/injection, schedule: Q04DX003 (ip), vehicle: saline with Tween-80 91 % of control | [9] 95 % of control | [10] 89 % of control

Oc1ccccc1OCCOCCOc1ccccc1O
inactive: endpoint: mean survival time, dose: 50.0 mg/kg/injection, schedule: Q04DX002 (ip), vehicle: other 100 % of control | endpoint: mean survival time, dose: 100.0 mg/kg/injection, schedule: Q04DX002 (ip), vehicle: other 88 % of control | endpoint: mean survival time, dose: 200.0 mg/kg/injection, schedule: Q04DX002 (ip), vehicle: other 103 % of control | endpoint: mean survival time, dose: 400.0 mg/kg/injection, schedule: Q04DX002 (ip), vehicle: other 103 % of control

O=S1(=O)CCCCC1
inactive: [12] 98 % of control | endpoint: mean survival time, dose: 75.0 mg/kg/injection, schedule: Q01DX001 (ip), vehicle: saline 104 % of control | [13] 98 % of control | [14] 93 % of control | endpoint: mean survival time, dose: 150.0 mg/kg/injection, schedule: Q01DX001 (ip), vehicle: saline 96 % of control | [15] 98 % of control | [16] 96 % of control | endpoint: mean survival time, dose: 300.0 mg/kg/injection, schedule: Q01DX001 (ip), vehicle: saline 95 % of control | [17] 100 % of control

C=C1C(O)CC2CC1C2(C)C (stereo not given)
inactive: [18] 98 % of control
